In EP0603240B1, “SAFENING HERBICIDAL PYRAZOLYLSULFONYLUREAS” (priority 1991, dated 1993):

Assays:
Type in all cases: in vivo
[1] = tested on: corn; assay: Example 6, Procedure II: Herbicide No. 1 + alachlor (No. 7) with antidotes
Procedure, shortened: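 Herbicide No. 1 plus alachlor and antidote, each applied in acetone, mixed into silt loam cover soil over seeded corn; untreated and herbicide-only controls included. Given initial overhead irrigation equal to 0.6 cm rainfall, then greenhouse sub-irrigation. Percent injury scored, duplicate averages; efficacy is injury without minus with antidote.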

[2] = tested on: corn; assay: Example 7, Procedure II: Herbicide No. 1 + metolachlor (No. 12) with antidotes
Procedure, shortened: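 Herbicide plus antidote, applied in acetone, mixed into silt loam top soil used to cover corn seed beds, with untreated and herbicide-only controls. After incorporation, containers got overhead irrigation equal to 0.6 cm rainfall, then sub-irrigation in greenhouse. Percent injury scored; antidote efficacy is injury difference; duplicate averages.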

[3] = tested on: barnyardgrass (Echinochloa crusgalli); assay: as above
Description: (§1) Containers were filled and compacted with a fumigated silt loam top soil to a depth of about 1.3 cm from the top of the container. A first container was designated as an untreated control, a second container was designated as a herbicide control, and a third container was designated as a herbicide + antidote test container. Each of the containers was seeded with a crop species. A measured amount of herbicide dispersed or dissolved in acetone was applied to a measured quantity of soil. To this same quantity of soil treated with herbicide, there was added a measured amount of antidote dispersed or dissolved in acetone. The quantity of soil treated with the herbicide and antidote was thoroughly mixed to incorporate the herbicide and antidote in the soil uniformly. The seed bed in the third container of soil was covered with the soil treated with the herbicide and antidote and the container was leveled. For each test series, the seed beds of the first and second containers were likewise covered by soil layers. the cover layer of the first container was not treated with herbicide or antidote.
(§2) The containers were then placed on a bench in a greenhouse and sub-irrigated as required for the duration of the test. […] Plant response is measured in terms of percent injury. Antidote efficacy is indicated as the difference in plant injury by the herbicide(s) without the antidote and with the antidote.
(§3) This procedure is the same as Procedure I, but modified in the manner that after incorporation of the chemicals (herbicide and antidote) the containers with the covered seedbed were treated with an initial overhead irrigation equivalent to 0.6 cm rainfall, then subsequently sub-irrigated as required on greenhouse benches.
(§4) In the series of greenhouse tests described below, for routine screening purposes the herbicide/antidote compositions were tested in crop/weed combinations involving corn as the crop and either or both of the weeds barnyardgrass (Echinochloa crusgalli), a monocotyledonous weed, and velvetleaf (Abutilon theophrasti), a dicotyledonous weed. In the tables below, these weeds are indicated by the symbols "BYG" and "VL", respectively.
(§5) In this example, Procedure II described above was followed. The data from the tests in this example is shown in Table 6 and represents averages of duplicate replications.
(§6) The tests in this example followed the same procedure and antidotes used in Example 6. However, Herbicide No. 12 (metolachlor) was used as the co-herbicide with Herbicide No. 1.

[4] = tested on: velvetleaf (Abutilon theophrasti); assay: as above
Description: as §1, §2, §3, §4, §5, §6

[5] = tested on: barnyardgrass (Echinochloa crusgalli); assay: Example 11, Procedure II: Herbicide No. 1 + metazachlor (No. 14) with antidotes
Description: as §1, §2, §3, §4
(§7) In this example, yet another α-chloroacetanilide co-herbicide, metazachlor (Herbicide No. 14) was combined with Herbicide No. 1 for investigation of the effect of various safeners on that composition. Metazachlor is the active ingredient in the commercial herbicide BUTISAN® S, used here as a 500 g/L formulation.

[6] = tested on: velvetleaf (Abutilon theophrasti); assay: as above
Description: as §1, §2, §3, §4, §7

[7] = tested on: barnyardgrass (Echinochloa crusgalli); assay: Example 21, Procedure II: Herbicide No. 1 + SUTAN PLUS (butylate + antidote) with antidotes
Description: as §1, §2, §3, §4
(§8) In this example, tests were conducted as in the preceding Examples 18-20, except here the co-herbicidal component was SUTAN® PLUS, a commercial product comprising as the active herbicidal ingredient the compound butylate (Herbicide No. 10) and an antidote […] (Antidote No. 1). Again, the antidotal compounds herein were Nos. 1, 2, 7, 13 and 15. Procedure II was used.

[8] = tested on: velvetleaf (Abutilon theophrasti); assay: as above
Description: as §1, §2, §3, §4, §8

[9] = Herbicide No.1 0.14 + No.7 4.48 kg/ha + antidote 2.24 kg/ha
[10] = Herbicide No.1 0.14 + No.7 4.48 kg/ha + antidote 8.96 kg/ha
[11] = Herbicide No.1 0.56 + No.7 4.48 kg/ha + antidote 2.24 kg/ha
[12] = Herbicide No.1 0.56 + No.7 4.48 kg/ha + antidote 8.96 kg/ha
[13] = Herbicide No.1 0.14 + No.12 3.36 kg/ha + antidote 2.24 kg/ha
[14] = Herbicide No.1 0.14 + No.12 3.36 kg/ha + antidote 8.96 kg/ha
[15] = Herbicide No.1 0.56 + No.12 3.36 kg/ha + antidote 2.24 kg/ha
[16] = Herbicide No.1 0.56 + No.12 3.36 kg/ha + antidote 8.96 kg/ha
[17] = Herbicide No.1 0.56 kg/ha + Herbicide No.14 3.36 kg/ha, antidote rate 2.24 kg/ha
[18] = Herbicide No.1 0.56 kg/ha + Herbicide No.14 3.36 kg/ha, antidote rate 8.96 kg/ha
[19] = Herbicide No.1 1.12 kg/ha + Herbicide No.14 3.36 kg/ha, antidote rate 2.24 kg/ha
[20] = Herbicide No.1 1.12 kg/ha + Herbicide No.14 3.36 kg/ha, antidote rate 8.96 kg/ha
[21] = Herbicide No.1 0.56 kg/ha + SUTAN + 8.96 kg/ha, antidote 2.24 kg/ha
[22] = Herbicide No.1 0.56 kg/ha + SUTAN + 8.96 kg/ha, antidote 8.96 kg/ha
[23] = Herbicide No.1 1.12 kg/ha + SUTAN + 8.96 kg/ha, antidote 2.24 kg/ha
[24] = Herbicide No.1 1.12 kg/ha + SUTAN + 8.96 kg/ha, antidote 8.96 kg/ha

Compound	% Injury Corn [1, 9] [%]	% Injury Corn [1, 10] [%]	% Injury Corn [1, 11] [%]	% Injury Corn [1, 12] [%]	% Injury Corn [2, 13] [%]	% Injury Corn [2, 14] [%]	% Injury Corn [2, 16] [%]	% Injury BYG [3, 13] [%]	% Injury BYG [3, 14] [%]	% Injury BYG [3, 15] [%]	% Injury BYG [3, 16] [%]	% Injury VL [4, 13] [%]	% Injury VL [4, 14] [%]	% Injury VL [4, 15] [%]	% Injury VL [4, 16] [%]	% Injury BYG [5, 17] [%]	% Injury BYG [5, 18] [%]	% Injury BYG [5, 19] [%]	% Injury BYG [5, 20] [%]	% Injury VL [6, 17] [%]	further results
C=CCN(CC=C)C(=O)C(Cl)Cl [compound 1]	10	0	15	5	0	0	10	100	100	100	100	70	75	85	80	99	100	99	100	80	% Injury Corn [2, 15]: 0%; % Injury VL [6, 18]: 90%; % Injury VL [6, 19]: 85%; % Injury VL [6, 20]: 80%; % Injury BYG [7, 21]: 0%; % Injury BYG [7, 22]: 25%; % Injury BYG [7, 23]: 10%; % Injury BYG [7, 24]: 35%; % Injury VL [8, 21]: 40%; % Injury VL [8, 22]: 65%; % Injury VL [8, 23]: 65%; % Injury VL [8, 24]: 60%
O=C1OC(=O)c2cccc3cccc1c23 [compound 2]	0	15	10	15	0	0	15	100	100	100	100	75	75	80	85	99	99	100	100	85	% Injury Corn [2, 15]: 10%; % Injury VL [6, 18]: 90%; % Injury VL [6, 19]: 97%; % Injury VL [6, 20]: 85%; % Injury BYG [7, 21]: 5%; % Injury BYG [7, 22]: 10%; % Injury BYG [7, 23]: 45%; % Injury BYG [7, 24]: 5%; % Injury VL [8, 21]: 55%; % Injury VL [8, 22]: 65%; % Injury VL [8, 23]: 70%; % Injury VL [8, 24]: 70%
O=C(C(Cl)Cl)N1CCOC12CCCCC2 [compound 7]	0	10	10	5	10	10	15	100	100	100	100	70	65	85	85	99	100	99	99	80	% Injury VL [6, 18]: 85%; % Injury VL [6, 19]: 90%; % Injury VL [6, 20]: 90%; % Injury BYG [7, 21]: 25%; % Injury BYG [7, 22]: 10%; % Injury BYG [7, 23]: 40%; % Injury BYG [7, 24]: 10%; % Injury VL [8, 21]: 45%; % Injury VL [8, 22]: 65%; % Injury VL [8, 23]: 65%; % Injury VL [8, 24]: 45%
CC1(C(Cl)Cl)OCCO1 [compound 13]	0	0	5	15	0	0	10	100	100	100	100	75	80	85	85	100	100	100	100	85	% Injury Corn [2, 15]: 10%; % Injury VL [6, 18]: 85%; % Injury VL [6, 19]: 90%; % Injury VL [6, 20]: 95%; % Injury BYG [7, 21]: 40%; % Injury BYG [7, 22]: 50%; % Injury BYG [7, 23]: 70%; % Injury BYG [7, 24]: 70%; % Injury VL [8, 21]: 55%; % Injury VL [8, 22]: 40%; % Injury VL [8, 23]: 70%; % Injury VL [8, 24]: 70%
